Earlier results in US7129073B2, “Regulation of neuronal function through metabotropic glutamate receptor signaling pathways” (The Rockefeller University, priority 2001, dated 2006).

Target: T1, T-cell protein-tyrosine phosphatase (TC PTP) (Homo sapiens, UniProt P17706)
T1 sequence (P17706 1-415): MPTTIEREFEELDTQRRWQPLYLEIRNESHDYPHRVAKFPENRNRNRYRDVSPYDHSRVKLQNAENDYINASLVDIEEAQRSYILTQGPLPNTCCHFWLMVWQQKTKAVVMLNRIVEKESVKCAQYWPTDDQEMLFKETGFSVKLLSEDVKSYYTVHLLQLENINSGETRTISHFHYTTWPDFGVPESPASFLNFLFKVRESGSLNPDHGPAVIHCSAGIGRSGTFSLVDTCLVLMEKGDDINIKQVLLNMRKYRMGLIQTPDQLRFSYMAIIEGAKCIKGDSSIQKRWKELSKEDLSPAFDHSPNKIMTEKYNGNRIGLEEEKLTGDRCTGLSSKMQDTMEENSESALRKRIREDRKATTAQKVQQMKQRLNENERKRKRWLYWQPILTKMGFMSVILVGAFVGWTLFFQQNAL
Details: cited from earlier work

For `[Na+].[Na+].[Na+].[O]=[V]([O-])([O-])[O-]` [Na3VO4], the “effect on TC PTP-dependent change in polarization” value (50 μM Na3VO4) is given as “inhibited” and the IC50 (FP-based direct binding assay) is given as 4 nM.
